This assay deals with PD-1/PD-L1 (Homo sapiens, UniProt Q9NZQ7). The assay is described as follows: TR-FRET PD-1/PD-L1 binding inhibition at the molecular level (free proteins). Conditions: Tag1-PD-L1 and Tag2-PD-1 proteins, twelve concentrations from 200 nM, 2 hours at room temperature, read-out: FRET assay (IC50). Put shortly: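 HTRF read-out at 665/620 nm after 2 h at room temperature. Detection used anti-Tag1 Eu cryptate plus anti-Tag2 XL665 antibodies. Tagged PD-L1 and PD-1 proteins were pre-mixed with compound across twelve […] 1:2 dilutions starting at 200 nM.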
Chain of PD-1/PD-L1 (Q9NZQ7 19-238 limits assumed): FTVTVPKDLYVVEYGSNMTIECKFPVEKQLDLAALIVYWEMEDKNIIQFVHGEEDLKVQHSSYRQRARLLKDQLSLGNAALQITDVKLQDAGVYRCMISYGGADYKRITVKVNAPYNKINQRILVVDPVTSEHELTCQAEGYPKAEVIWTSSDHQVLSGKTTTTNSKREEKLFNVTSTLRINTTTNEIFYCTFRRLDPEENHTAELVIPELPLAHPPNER
The IC50 is the point on the concentration scale where inhibition reaches its midpoint. Regarding `Cc1c(NC(=O)c2cc3n(n2)CCCC3NCCO)cccc1-c1cccc(Nc2nccc3cc(CN4CC[C@@H](O)C4)cnc23)c1C` (stereo partly drawn) [Compound 14, 4-((2-hydroxyethyl)amino)-N-(3'-((3-(((R)-3-hydroxypyrrolidin-1-yl)methyl)-1,7-naphthyridin-8-yl)amino)-2,2'-dimethyl-[1,1'-biphenyl]-3-yl)-4,5,6,7-tetrahydropyrazolo[1,5-a]pyridine-2-carboxamide], the concentration for half-maximal inhibition (IC50) is less than 10 nM. Take `Cc1c(NC(=O)c2cc3n(n2)CCCC3=O)cccc1-c1cccc(NC(=O)c2cc3n(n2)CCCC3O)c1C` (centres unmarked) [Compound 2, N-(2,2'-dimethyl-3'-(4-oxo-4,5,6,7-tetrahydropyrazolo[1,5-a]pyridine-2-carboxamido)-[1,1'-biphenyl]-3-yl)-4-hydroxy-4,5,6,7-tetrahydropyrazolo[1,5-a]pyridine-2-carboxamide]: the IC50 was less than 10 nM.

As for `Cc1c(NC(=O)c2cc3n(n2)CCCC3NCCO)cccc1-c1cccc(-c2cc3n(n2)CCCC3N2CC[C@@H](O)C2)c1C` (stereo partly drawn) [Compound 159, 4-((2-hydroxyethyl)amino)-N-(3'-(4-((R)-3-hydroxypyrrolidin-1-yl)-4,5,6,7-tetrahydropyrazolo[1,5-a]pyridin-2-yl)-2,2'-dimethyl-[1,1'-biphenyl]-3-yl)-4,5,6,7-tetrahydropyrazolo[1,5-a]pyridine-2-carboxamide], the IC50 lay in the range of 10 to 100 nM. Turning to `CC(=O)NCCNC1CCCn2nc(C(=O)Nc3cccc(-c4cccc(NC(=O)c5ccc(CN6CC[C@@H](O)C6)cn5)c4Cl)c3Cl)cc21` (stereo partly drawn) [Compound 103, 4-((2-acetamidoethyl)amino)-N-(2,2'-dichloro-3'-(5-(((R)-3-hydroxypyrrolidin-1-yl)methyl)picolinamido)-[1,1'-biphenyl]-3-yl)-4,5,6,7-tetrahydropyrazolo[1,5-a]pyridine-2-carboxamide], the IC50 was less than 10 nM.

In the case of `N#Cc1cc(CN2CC[C@@H](C(=O)O)C2)cc2nc(-c3cccc(-c4cccc(NC(=O)c5cc6n(n5)CCCC6NC[C@@H]5CCC(=O)N5)c4Cl)c3Cl)oc12` (stereo partly drawn) [Compound 68, (3R)-1-((7-cyano-2-(2,2'-dichloro-3'-(4-((((S)-5-oxopyrrolidin-2-yl)methyl)amino)-4,5,6,7-tetrahydropyrazolo[1,5-a]pyridine-2-carboxamido)-[1,1'-biphenyl]-3-yl)benzo[d]oxazol-5-yl)methyl)pyrrolidine-3-carboxylic acid], the IC50 is less than 10 nM. On to `Cc1c(-c2cc3n(n2)CCCC3NCCO)cccc1-c1cccc(-c2cc3n(n2)CCCC3N2CC[C@@H](O)C2)c1C` (stereo partly drawn) [Compound 157, (3R)-1-(2-(3'-(4-((2-hydroxyethyl)amino)-4,5,6,7-tetrahydropyrazolo[1,5-a]pyridin-2-yl)-2,2'-dimethyl-[1,1'-biphenyl]-3-yl)-4,5,6,7-tetrahydropyrazolo[1,5-a]pyridin-4-yl)pyrrolidin-3-ol], for which the half-maximal inhibitory concentration (IC50) was more than 1000 nM.

Take `Cc1c(NC(=O)c2cc3n(n2)CCCC3N2CC[C@@H](C(=O)O)C2)cccc1-c1cccc(Nc2nccc3cc(CN4CC[C@@H](O)C4)cnc23)c1Cl` (stereo partly drawn) [Compound 42, (3R)-1-(2-((2'-chloro-3'-((3-(((R)-3-hydroxypyrrolidin-1-yl)methyl)-1,7-naphthyridin-8-yl)amino)-2-methyl-[1,1'-biphenyl]-3-yl)carbamoyl)-4,5,6,7-tetrahydropyrazolo[1,5-a]pyridin-4-yl)pyrrolidine-3-carboxylic acid]: the IC50 is less than 10 nM. With `O=C(Nc1cccc(-c2cccc(Nc3nc(C(F)F)nc4cc(CN5CC[C@@H](O)C5)cnc34)c2Cl)c1Cl)c1cc2n(n1)CCC[C@H]2N1CCC(O)CC1` [Compound 296, (R)-N-(2,2'-dichloro-3'-((2-(difluoromethyl)-7-(((R)-3-hydroxypyrrolidin-1-yl)methyl)pyrido[3,2-d]pyrimidin-4-yl)amino)-[1,1'-biphenyl]-3-yl)-4-(4-hydroxypiperidin-1-yl)-4,5,6,7-tetrahydropyrazolo[1,5-a]pyridine-2-carboxamide] the figure was 10 to 100 nM; with `COc1cc(-c2cccc(-c3cccc(NC(=O)c4cc5n(n4)CCCC5O)c3Cl)c2Cl)cc(F)c1CNCCNC(C)=O` (centres unmarked) [Compound 116, N-(4"-(((2-acetamidoethyl)amino)methyl)-2,2'-dichloro-3"-fluoro-5"-methoxy-[1,1':3',1"-terphenyl]-3-yl)-4-hydroxy-4,5,6,7-tetrahydropyrazolo[1,5-a]pyridine-2-carboxamide], 10 to 100 nM. To `CC(=O)NCCNC1CCCn2nc(C(=O)Nc3cccc(-c4cccc(NC(=O)c5nc6c(s5)CN(C)CC6)c4C)c3C)cc21` (centres unmarked) [Compound 148, N-(3'-(4-((2-acetamidoethyl)amino)-4,5,6,7-tetrahydropyrazolo[1,5-a]pyridine-2-carboxamido)-2,2'-dimethyl-[1,1'-biphenyl]-3-yl)-5-methyl-4,5,6,7-tetrahydrothiazolo[5,4-c]pyridine-2-carboxamide] belongs less than 10 nM; to `Cc1c(NC(=O)c2ccc(CNCCO)cn2)cccc1-c1cccc(NC(=O)c2cc3n(n2)CCCC3NCC2CCC(=O)N2)c1C` (centres unmarked) [Compound 75, N-(3'-(5-(((2-hydroxyethyl)amino)methyl)picolinamido)-2,2'-dimethyl-[1,1'-biphenyl]-3-yl)-4-(((5-oxopyrrolidin-2-yl)methyl)amino)-4,5,6,7-tetrahydropyrazolo[1,5-a]pyridine-2-carboxamide], less than 10 nM. To `Cc1c(NC(=O)c2ccc(CNCCO)cn2)cccc1-c1cccc(NC(=O)c2cc3n(n2)CCCC3N2CC[C@@H](C(=O)O)C2)c1C` (stereo partly drawn) [Compound 77, (3R)-1-(2-((3'-(5-(((2-hydroxyethyl)amino)methyl)picolinamido)-2,2'-dimethyl-[1,1'-biphenyl]-3-yl)carbamoyl)-4,5,6,7-tetrahydropyrazolo[1,5-a]pyridin-4-yl)pyrrolidine-3-carboxylic acid] belongs less than 10 nM; to `N#Cc1cc(CN2CC[C@@H](C(=O)O)C2)cc2nc(-c3cccc(-c4cccc(NC(=O)c5cc6n(n5)CCCC6O)c4Cl)c3Cl)oc12` (stereo partly drawn) [Compound 67, (3R)-1-((7-cyano-2-(2,2'-dichloro-3'-(4-hydroxy-4,5,6,7-tetrahydropyrazolo[1,5-a]pyridine-2-carboxamido)-[1,1'-biphenyl]-3-yl)benzo[d]oxazol-5-yl)methyl)pyrrolidine-3-carboxylic acid], less than 10 nM. `Cc1c(NC(=O)c2cc3n(n2)CCCC3N2CC[C@@H](O)C2)cccc1-c1cccc(Nc2nccc3cc(CN4CC[C@@H](O)C4)cnc23)c1C` (stereo partly drawn) [Compound 13, 4-((R)-3-hydroxypyrrolidin-1-yl)-N-(3'-((3-(((R)-3-hydroxypyrrolidin-1-yl)methyl)-1,7-naphthyridin-8-yl)amino)-2,2'-dimethyl-[1,1'-biphenyl]-3-yl)-4,5,6,7-tetrahydropyrazolo[1,5-a]pyridine-2-carboxamide]: the IC50 was less than 10 nM.

As for `Cc1c(NC(=O)c2ccc(CN3CC[C@@H](O)C3)cn2)cccc1-c1cccc(NC(=O)c2cc3n(n2)CCN(CC(=O)O)C3)c1C` [Compound 326, (R)-2-(2-((3'-(5-((3-hydroxypyrrolidin-1-yl)methyl)picolinamido)-2,2'-dimethyl-[1,1'-biphenyl]-3-yl)carbamoyl)-6,7-dihydropyrazolo[1,5-a]pyrazin-5(4H)-yl)acetic acid], the half-maximal inhibitory concentration (IC50) is less than 10 nM.

Consider `CN[C@H]1CCCn2nc(C(=O)Nc3cccc(-c4cccc(NC(=O)c5ccc(CN6CC[C@@H](O)C6)cn5)c4Cl)c3Cl)cc21` [Compound 350, (S)-N-(2,2'-dichloro-3'-(5-(((R)-3-hydroxypyrrolidin-1-yl)methyl)picolinamido)-[1,1'-biphenyl]-3-yl)-4-(methylamino)-4,5,6,7-tetrahydropyrazolo[1,5-a]pyridine-2-carboxamide], for which the 50% inhibitory concentration (IC50) was 10 to 100 nM. Take `Cc1c(NC(=O)c2ccc(CNCCO)cn2)cccc1-c1cccc(NC(=O)c2cc3n(n2)CCCC3O)c1C` (centres unmarked) [Compound 71, 4-hydroxy-N-(3'-(5-(((2-hydroxyethyl)amino)methyl)picolinamido)-2,2'-dimethyl-[1,1'-biphenyl]-3-yl)-4,5,6,7-tetrahydropyrazolo[1,5-a]pyridine-2-carboxamide]: the IC50 is less than 10 nM. For `COc1nc(-c2cccc(-c3cccc(-c4cc5n(n4)CCCC5N4CC[C@@H](O)C4)c3Cl)c2Cl)cnc1CNC[C@@H]1CCC(=O)N1` (stereo partly drawn) [Compound 170, (5S)-5-((((5-(2,2'-dichloro-3'-(4-((R)-3-hydroxypyrrolidin-1-yl)-4,5,6,7-tetrahydropyrazolo[1,5-a]pyridin-2-yl)-[1,1'-biphenyl]-3-yl)-3-methoxypyrazin-2-yl)methyl)amino)methyl)pyrrolidin-2-one], the IC50 was 10 to 100 nM.

Turning to `O=C(Nc1cccc(-c2cccc(Nc3nc(C(F)(F)F)nc4cc(CN5CC[C@@H](O)C5)cnc34)c2Cl)c1Cl)c1cc2n(n1)CCC[C@H]2N1CC[C@@H](O)C1` [Compound 339, (R)-N-(2,2'-dichloro-3'-((7-(((R)-3-hydroxypyrrolidin-1-yl)methyl)-2-(trifluoromethyl)pyrido[3,2-d]pyrimidin-4-yl)amino)-[1,1'-biphenyl]-3-yl)-4-((R)-3-hydroxypyrrolidin-1-yl)-4,5,6,7-tetrahydropyrazolo[1,5-a]pyridine-2-carboxamide], the half-maximal inhibitory concentration (IC50) lay within 10 to 100 nM. To `O=C(Nc1cccc(-c2cccc(Nc3nc(C(F)F)nc4cc(CN5CC(F)C5)cnc34)c2Cl)c1Cl)c1cc2n(n1)CCC[C@@H]2N1CCC(O)CC1` [Compound 269, (S)-N-(2,2'-dichloro-3'-((2-(difluoromethyl)-7-((3-fluoroazetidin-1-yl)methyl)pyrido[3,2-d]pyrimidin-4-yl)amino)-[1,1'-biphenyl]-3-yl)-4-(4-hydroxypiperidin-1-yl)-4,5,6,7-tetrahydropyrazolo[1,5-a]pyridine-2-carboxamide] belongs 10 to 100 nM.
